Laboratory results reported in US10478501B2, “Method of treating disorders using a pharmaceutical composition of oligopeptides” (Merck Patent GmbH, priority 2011, dated 2019).

Experiment: Water Vapour Sorption (dynamic vapour experiments)
Type: physicochemical
Details: 25° C., up to 98% relative humidity, acc. to Ph. Eur. criteria
From the text: Preferably, the anhydrates as described herein and especially the crystalline form A1 can be characterised, alternatively or additionally, by dynamic vapour experiments. The results can be obtained by standard techniques as described in Rolf Hilfiker, ‘Polymorphism in the Pharmaceutical Industry’, Wiley-VCH. Weinheim 2006 (Chapter 9: Water Vapour Sorption, and references therein). […] Eur. criteria.

CC(C)[C@H]1C(=O)N[C@@H](CCCNC(=N)N)C(=O)NCC(=O)N[C@@H](CC(=O)O)C(=O)N[C@H](Cc2ccccc2)C(=O)N1C [crystalline form A1, cyclo-(Arg-Gly-Asp-DPhe-NMeVal)]
hygroscopicity (Water Vapour Sorption behaviour): non-hygroscopic
